In publication PMC7013346, “Bioaccessibility and Pharmacokinetics of a Commercial Saffron (Crocus sativus L.) Extract” (Evidence-based Complementary and Alternative Medicine : eCAM, 2020):
Where two headings read alike, the source gives them in different places. Marks after values point to notes of the source that are not given here.

Legend:
[1] = Abiotic in vitro digestion (salivary, gastric, duodenal steps) of affron® tablets, HPLC-PAD/MS quantification; assay type: in vitro ADME; details: for Bioactive molecule content, initial sample: affron® before in vitro digestion; for Bioactive molecule content, initial sample / Bioactive molecule content, digested sample, duodenal / Bioactive molecule content, digested sample, gastric / Bioactive molecule content, digested sample, salivary: mean ± SD; for Bioactive molecule content, digested sample, duodenal: after duodenal step, 150 min, pH 7, 37°C, pancreatin and bile extract; for Bioactive molecule content, digested sample, gastric: after gastric step, 90 min, pH 2, 37°C, pepsin; for Bioactive molecule content, digested sample, salivary: after salivary step, 5 min, pH 6.9, 37°C, α-amylase; for Bioaccessibility: after whole in vitro digestion of affron® tablets, relative to initial content
Method: Briefly, the salivary step runs for 5 min at pH 6.9 and 37°C, under aerobic conditions with 3.9 units α-[…]. Then, the samples were transferred for 90 min to the gastric step at pH 2 and 37°C with 71.2 units pepsin/ml under anaerobic conditions. Finally, the duodenal step was set for 150 min at pH 7 and 37°C, with 9.2 mg pancreatin/ml and 55.2 mg bile extract/ml under anaerobic conditions. Samples were taken from every steps and were centrifuged at 7000 g for 40 min at 4°C. […] All samples were analysed at least in duplicate. High-performance liquid chromatography (HPLC) analysis of bioactive components from initial and digested saffron extract was performed using an Agilent Technologies 1220 Infinity series system equipped with a photodiode array detector (PAD) according to Kell et al., while the analysis of crocetin was according to Umigai et al.. […] To estimate the percentage of bioaccessibility of the main bioactive compounds of affron®, an equation was used according to Ordoudi et al.

[2] = Single-dose pharmacokinetics of crocetin in plasma after oral affron® tablets in healthy volunteers; assay type: in vivo, human; details: for Detection in plasma after affron® intake: human plasma, 0.5-3 h and 24 h after 56 or 84 mg affron®, HPLC
Method: A single dose, randomized, double blinded study was used to evaluate the pharmacokinetics of two different saffron doses (56 mg and 84 mg). The randomization code was generated by Random Allocation Software, sealed envelope (London, UK). Enrolled participants were then allocated to one of two groups: group 1: consumed 4 × 14 mg of affron® tablets (56 mg single dose); group: 2 : 6 × 14 mg of affron® tablets (84 mg single dose).
The subjects of the pharmacokinetics were adult male (n = 5) and female (n = 8; nonpregnant and nonlactating) healthy volunteers of 18–30 years age. All participants self-reported to be in normal physical health (BMI < 30) and passed the exclusion screening. Exclusion criteria included suffering clinically significant medical condition, such as, but not limited to, cardiovascular, neurological, psychiatric, renal, immunological, endocrine (including uncontrolled diabetes or thyroid disease), or uncontrolled haematological abnormalities. Other exclusion criteria were the use within the past 3 months of the tested compounds and/or antioxidants; no current use of prescription medications except the oral contraceptive pill in women; and known allergy to any tested compound and/or antioxidant.
All participants were advised to fast from 10 : 00 pm prior to the study until the collection of the first blood sample. Fasting was broken immediately after dosing the corresponding tablets. At time 0 h and at 4 h after dosing, balanced breakfasts (410 kcal, approximately 30% of them from fats) and lunches (625 kcal, approximately 30% from fats) were served at the center. The meals were poor in carotenoids. Subjects remained onsite for the full first 6 hours of sample collection and returned to the center again for the 24 h samples. Subjects were monitored and asked to report any possible side-effects experienced due to intake of the tablets during the whole 24 h time after the intake of the tablets.
For crocetin pharmacokinetic analysis, blood samples (3 ml collected into tubes with EDTA) were drawn prior to affron® supplementation (time 0 h), between time 30 and 180 min at every 30 min and 24 h after supplementation. The blood tubes were briefly mixed by inversion and put on ice and centrifuged (600 g, 4°C for 10 min) to separate the plasma. The EDTA-plasma of every sample was carefully removed in 3 aliquots (500 μl each) and stored at −20°C for less than 48 h before being finally transported and stored at −80°C.
Plasma samples were extracted based on the method described and validated by Mohammadpour et al.. Briefly, plasma samples were thawed to room temperature. Then, 20 μl of an internal standard solution of 13-cis-retinoic acid and 120 μl acetonitrile were added to 100 μl of sample. The samples tubes were capped and vortexed for 10 s and put on ice for 5 min. The samples were then gently rotated for 10 minutes before centrifuging at 12000 g for 10 min. The supernatant was collected and analysed by HPLC.
The efficiency of the extraction process was estimated by the measure of the residual amount of the internal standard, and 13-cis-retinoic acid was recovered after the analysis. The recovery percentage was then applied to the results to calculate the true concentration of crocetin in the samples.
The chromatogram of a sample of pure standard crocetin and its typical absorption wavelength were used to identify and confirm the crocetin peak in every analysis, as shown in Mohammadpour et al..
The crocetin concentration in biological samples was calculated using a standard linear curve at several crocetin concentration and the Shimadzu software for chromatogram analysis. All samples fell within the range of the linear standard curve (concentration (μg/ml) = (AUC + 131.56)/9475). The intra-assay precision CV was 4.8%, and the interassay variability and precision CV were 7.3%, with a blood detection limit of 0.05 μg/ml.
Pharmacokinetic parameters were derived using GraphPad Prism 7.0 (California, USA). […]

[3] = parameters: method as in PMID 23638292; details: human, single oral dose of 16 mg of saffron crocetins; cited from earlier work
[4] = parameters: method as in PMID 21112749; details: human, single oral dose of 22.5 mg of crocetin from G. jasminoides; cited from earlier work

Compound	Reduction of content during gastric digestion ([1]; acid-pepsin environment, gastric step)	Bioactive molecule content, initial sample [1]	Bioactive molecule content, digested sample, duodenal [1]	Bioactive molecule content, digested sample, gastric [1]	Bioactive molecule content, digested sample, salivary [1]	Bioaccessibility [1]	Detection in plasma after affron® intake [2]	Detection in plasma after affron® intake ([2]; listed as safranal)	Bioactive molecule content, initial sample ([1]; listed as safranal)	Bioactive molecule content, digested sample, duodenal ([1]; listed as safranal)	Increase of content after the digestion process vs initial concentration ([1]; whole in vitro digestion)	Detection in plasma after affron® intake ([2]; listed as picrocrocin)	Decrease of content after the digestion process ([1]; whole in vitro digestion vs initial conditions)	half-life ([2]; both sexes, plasma, crocetin after oral affron® tablets, human, dose not separated, read-out: Plasmatic half-life (converted))	Clearance ([2]; crocetin after oral affron® tablets, human, dose not separated)	Time after administration at which plasma crocetin fell to the HPLC-PAD quantification limit / ceased to be detected ([2]; human, 56 or 84 mg affron®)	Crocetin concentration in plasma 24 h after affron® intake ([2]; human, 24 h, detection limit 0.05 μg/ml)	Change of concentration over the whole in vitro digestion process vs initial composition ([1]; salivary, stomach and duodenal steps)	Cmax [3]	Cmax [4]
CC(/C=C/C=C(\C)C(=O)O[C@@H]1O[C@H](CO[C@@H]2O[C@H](CO)[C@@H](O)[C@H](O)[C@H]2O)[C@@H](O)[C@H](O)[C@H]1O)=C\C=C\C=C(C)\C=C\C=C(/C)C(=O)O[C@@H]1O[C@H](CO[C@@H]2O[C@H](CO)[C@@H](O)[C@H](O)[C@H]2O)[C@@H](O)[C@H](O)[C@H]1O (relative stereo) [t-crocin-4, trans-crocin-4]	84%	1.66 ± 0.04^b %, dry basis	0.20 ± 0.04^a %, dry basis	0.26 ± 0.03^a %, dry basis	1.11 ± 0.43^b %, dry basis	12.05%														
CC1=C(C=O)C(C)(C)CC=C1 [Safranal]		0.04 ± 0.01^a %, dry basis	0.08 ± 0.01^b %, dry basis	0.21 ± 0.01^c %, dry basis	0.03 ± 0.00^a %, dry basis	200.00%	not detected or appeared below the detection limit	not detected	0.04 %, dry basis	0.08 %, dry basis	about 2 folds									
CC1=C(C=O)C(C)(C)CC(O[C@@H]2O[C@H](CO)[C@@H](O)[C@H](O)[C@H]2O)C1 (stereo partly drawn) [Picrocrocin, 4-(β-D-glucopyranosyloxy)-2,6,6-trimethyl-1-cyclohexene-1-carboxaldehyde]		3.21 ± 0.07^c %, dry basis	2.61 ± 0.05^b %, dry basis	2.07 ± 0.02^a %, dry basis	3.14 ± 0.11^c %, dry basis	81.31%	absent					not detected	19%							
CC(/C=C/C=C(\C)C(=O)O)=C\C=C\C=C(C)\C=C\C=C(/C)C(=O)O [Crocetin]		0.03 ± 0.01^a %, dry basis	0.02 ± 0.01^a %, dry basis	0.03 ± 0.01^a %, dry basis	0.02 ± 0.01^a %, dry basis	66.67%								51 ± 2.4 min	2.70 ± 0.14 L/h	3 h	below the detection limit	did not increase	350 ng/mL	280 ng/mL
Kaempferol diglucoside		0.13 ± 0.01^b,c %, dry basis	0.09 ± 0.01^a %, dry basis	0.12 ± 0.01^b %, dry basis	0.14 ± 0.01^c %, dry basis	69.23%														
